Holding throughout (assay type): functional
The subject of test [1] is Mycobacterium tuberculosis. Briefly: Antitubercular activity against Mycobacterium tuberculosis H37Rv at 6.25 ug/ml by microplate alamar blue assay.
Test [2] is described as follows: Selectivity index, ratio of IC50 for african green monkey Vero cells to MIC for Mycobacterium tuberculosis H37Rv.
Test [3] deals with Mycobacterium tuberculosis. Briefly: Antitubercular activity against Mycobacterium tuberculosis H37Rv by twofold dilution method.

Values after ≈ are worked out from the molar mass of the structure shown.

For the compound `CCOC(=O)C1=C(C)NC(=O)NC1c1cn(-c2ccccc2)nc1-c1ccc(C)cc1` (centres undefined), in test [1], at 6.25 µg/mL the inhibition was 68%.

As to `COC(=O)C1=C(C)NC(=S)NC1c1cn(-c2ccccc2)nc1-c1ccc(Br)cc1` (centres undefined), in test [1], the inhibition – broadly, the drop in the measured response relative to a control, in per cent – at 6.25 µg/mL was found to be 43%.

Compound `COC(=O)C1=C(C)NC(=S)NC1c1cn(-c2ccccc2)nc1-c1ccc([N+](=O)[O-])cc1` (centres undefined) showed an inhibition at 6.25 µg/mL in test [1] of 91%. Besides, in test [2], the “Selectivity Index” value was 3. Moreover, inhibition of growth in test [3] (MIC) required 3.13 µg/mL (≈ 6.96 µM).

Compound `COC(=O)C1=C(C)NC(=S)NC1c1cn(-c2ccccc2)nc1-c1ccc(C)cc1` (centres undefined) returned an inhibition at 6.25 µg/mL in test [1] of 46%.

In test [1], `COC(=O)C1=C(C)NC(=O)NC1c1cn(-c2ccccc2)nc1-c1ccc(F)cc1` (centres undefined) gave an inhibition at 6.25 µg/mL of 62%.

Compound `COC(=O)C1=C(C)NC(=O)NC1c1cn(-c2ccccc2)nc1-c1ccc(Cl)cc1` (centres undefined) showed an inhibition at 6.25 µg/mL in test [1] of 75%.

The compound `COC(=O)C1=C(C)NC(=O)NC1c1cn(-c2ccccc2)nc1-c1ccc(Br)cc1` (centres undefined) came in with an inhibition at 6.25 µg/mL in test [1] of 90%. Moreover, in test [2], the “Selectivity Index” value is given as above 1.6. The MIC (usually the lowest concentration found to suppress growth) in test [3] was 6.25 µg/mL (≈ 13.4 µM).

On to `COC(=O)C1=C(C)NC(=O)NC1c1cn(-c2ccccc2)nc1-c1ccc([N+](=O)[O-])cc1` (centres undefined), for which the inhibition at 6.25 µg/mL in test [1] came out at 39%.

Take `CCOC(=O)C1=C(C)NC(SC)NC1c1cn(-c2ccccc2)nc1-c1ccc(F)cc1` (centres undefined): at 6.25 µg/mL the inhibition in test [1] was 8%.

As for `CCOC(=O)C1=C(C)NC(SC)NC1c1cn(-c2ccccc2)nc1-c1ccc(Cl)cc1` (centres undefined), the inhibition at 6.25 µg/mL in test [1] amounted to 13%.

Take `CCOC(=O)C1=C(C)NC(SC)NC1c1cn(-c2ccccc2)nc1-c1ccc(Br)cc1` (centres undefined): 6.25 µg/mL produced 13% inhibition in test [1].

The compound `CCOC(=O)C1=C(C)NC(SC)NC1c1cn(-c2ccccc2)nc1-c1ccc([N+](=O)[O-])cc1` (centres undefined) came in with an inhibition at 6.25 µg/mL in test [1] of 37%.

Turning to `CCOC(=O)C1=C(C)NC(SC)NC1c1cn(-c2ccccc2)nc1-c1ccc(C)cc1` (centres undefined), the inhibition at 6.25 µg/mL in test [1] was determined as 97%. In addition, the “Selectivity Index” value in test [2] is listed as 4.7. This compound displayed an MIC in test [3] of 1.56 µg/mL (≈ 3.48 µM).

Compound `CCOC(=O)C1=C(C)NC(=O)NC1c1cn(-c2ccccc2)nc1-c1ccc([N+](=O)[O-])cc1` (centres undefined) displayed an inhibition at 6.25 µg/mL in test [1] of 100%. For the same compound, the “Selectivity Index” value in test [2] is above 500. Moreover, the MIC in test [3] amounted to 0.02 µg/mL (≈ 0.0447 µM).

Take `CCOC(=O)C1=C(C)NC(=N)NC1c1cn(-c2ccccc2)nc1-c1ccc([N+](=O)[O-])cc1` (centres undefined): the inhibition at 6.25 µg/mL in test [1] turned out to be 58%.

In the case of `CCOC(=O)C1=C(C)NC(=S)NC1c1cn(-c2ccccc2)nc1-c1ccc(Cl)cc1` (centres undefined), at 6.25 µg/mL the inhibition in test [1] was 75%.

In turn, `CCOC(=O)C1=C(C)NC(=S)NC1c1cn(-c2ccccc2)nc1-c1ccc(Br)cc1` (centres undefined) showed an inhibition at 6.25 µg/mL in test [1] of 87%.

In turn, `COC(=O)C1=C(C)NC(=O)NC1c1cn(-c2ccccc2)nc1-c1ccc(C)cc1` (centres undefined) yielded an inhibition at 6.25 µg/mL in test [1] of 98%. Further, the “Selectivity Index” value in test [2] is given as above 6.4. Moreover, inhibition of growth in test [3] (MIC) required 1.56 µg/mL (≈ 3.88 µM).

In test [1], `CCOC(=O)C1=C(C)NC(=O)NC1c1cn(-c2ccccc2)nc1-c1ccc(F)cc1` (centres undefined) had an inhibition at 6.25 µg/mL of 100%. Also, in test [2], the “Selectivity Index” value was above 500. This compound registered an MIC in test [3] of 0.02 µg/mL (≈ 0.0476 µM).

Take `CCOC(=O)C1=C(C)NC(=O)NC1c1cn(-c2ccccc2)nc1-c1ccc(Cl)cc1` (centres undefined): the inhibition at 6.25 µg/mL in test [1] stood at 49%.

Compound `CCOC(=O)C1=C(C)NC(=O)NC1c1cn(-c2ccccc2)nc1-c1ccc(Br)cc1` (centres undefined) had an inhibition at 6.25 µg/mL in test [1] of 33%.

In test [1], `CCOC(=O)C1=C(C)NC(=S)NC1c1cn(-c2ccccc2)nc1-c1ccc(F)cc1` (centres undefined) registered an inhibition at 6.25 µg/mL of 30%.

Compound `CCOC(=O)C1=C(C)NC(=S)NC1c1cn(-c2ccccc2)nc1-c1ccc([N+](=O)[O-])cc1` (centres undefined) returned an inhibition at 6.25 µg/mL in test [1] of 92%. Also, in test [2], the “Selectivity Index” value is above 3.2. The compound further returned an MIC in test [3] of 3.13 µg/mL (≈ 6.75 µM).

Compound `CCOC(=O)C1=C(C)NC(=S)NC1c1cn(-c2ccccc2)nc1-c1ccc(C)cc1` (centres undefined) came in with an inhibition at 6.25 µg/mL in test [1] of 96%. The “Selectivity Index” value in test [2] was 5.7. In addition, the lowest concentration to inhibit growth in test [3] (MIC) was 1.56 µg/mL (≈ 3.61 µM).

In test [1], `CCOC(=O)C1=C(C)NC(=N)NC1c1cn(-c2ccccc2)nc1-c1ccc(F)cc1` (centres undefined) returned an inhibition at 6.25 µg/mL of 18%.

`CCOC(=O)C1=C(C)NC(=N)NC1c1cn(-c2ccccc2)nc1-c1ccc(Cl)cc1` (centres undefined) showed an inhibition at 6.25 µg/mL in test [1] of 94%. Also, in test [2], the “Selectivity Index” value was above 3.2. For the same compound, the MIC in test [3] stood at 3.13 µg/mL (≈ 7.18 µM).

On to `CCOC(=O)C1=C(C)NC(=N)NC1c1cn(-c2ccccc2)nc1-c1ccc(Br)cc1` (centres undefined), for which, in test [1], testing at 6.25 µg/mL gave an inhibition of 51%.

In the case of `CCOC(=O)C1=C(C)NC(=N)NC1c1cn(-c2ccccc2)nc1-c1ccc(C)cc1` (centres undefined), in test [1], the inhibition at 6.25 µg/mL amounted to 78%.

As for `COC(=O)C1=C(C)NC(=S)NC1c1cn(-c2ccccc2)nc1-c1ccc(F)cc1` (centres undefined), in test [1], the inhibition at 6.25 µg/mL worked out at 73%.

Compound `COC(=O)C1=C(C)NC(=S)NC1c1cn(-c2ccccc2)nc1-c1ccc(Cl)cc1` (centres undefined) gave an inhibition at 6.25 µg/mL in test [1] of 68%.

`NNC(=O)c1ccncc1` [ISONIAZID] came in with an MIC in test [3] of 0.03 µg/mL (≈ 0.219 µM).

The record behind these values is ChEMBL document CHEMBL1255176, “Novel dihydropyrimidines as a potential new class of antitubercular agents” (2010).
